# Assay results published in patent US11261209B2, “Enhanced coupling of stereodefined oxazaphospholidine phosphoramidite monomers to nucleoside or oligonucleotide” (Roche Innovation Center Copenhagen A/S, priority 2016, dated 2022).
# Entries after “also recorded” stand apart in the source; their conditions may differ.
# Assays:
# [1] = Solubility of oxazaphospholidine phosphoramidite monomers in solvent, visual examination; type: physicochemical; conditions: for Soluble after: 0 h MeCN + 2.5% pyridine / Soluble after: 0 h MeCN / Soluble after: 24 h MeCN + 2.5% pyridine / Soluble after: 24 h MeCN: 0.013 mmol amidite in 0.13 mL, room temperature; for Solubility after 24 hours in MeCN with addition of pyridine: MeCN with addition of pyridine (2.5%)
# Procedure: To a 1.5 mL vial was added 0.013 mmol of amidite after which the solid material was dissolved in 0.13 mL of solvent. Hereafter, the vial was capped, vortexed, and finally left at room temperature for 24 hours. Then, the dissolved material was visually examined regarding the solubility (FIG. 1). If the solution appeared cloudy or otherwise non-homogenous the solubility was set to “no”. If the solution appeared completely homogenous the solubility was set to “yes” (examination repeated after 24 hours).
# Solubility of the following monomers was determined as per example 7.
# [2] = Stability of amidite in solution by HPLC-MS (UV 254 nm, normalised to 0 hours); type: physicochemical
# Procedure: Stability Determination Method: To complete the analysis the stability of the amidite was investigated using an Agilent 1100 series HPLC-MS with a gradient from 80% A (1% NH4OH in H2O) to 100% B (20% A in MeCN) and a Waters Xterra MS C18 2.1×100 mm column. The mass and UV peak of the mother compound was identified at 0 hours and at 24 hours. Hereafter, the relative stability compared to other by-products was reported by integrating the UV chromatogram (254 nm) and normalizing the area to the chromatogram recorded at 0 hours (FIG. 2).
# To a 1.5 mL vial was added 0.013 mmol of amidite after which the solid material was dissolved in 0.13 mL of solvent (with and without Et3N, approximately 5-10 eq). Hereafter, the vial was capped, vortexed, and finally left at room temperature for 24 hours. To investigate the stability of the amidite an Agilent 1100 series HPLC-MS with a gradient from 80% A (1% NH4OH in H2O) to 100% B (20% A in MeCN) and a Waters Xterra MS C18 2.1×100 mm column was used. The mass and UV peak of the mother compound was identified at 0 hours and at 24 hours. Hereafter, the relative stability compared to other by-products was reported. This was again repeated after 48 hours.
Compound,Soluble after: 0 h MeCN + 2.5% pyridine [1],Soluble after: 0 h MeCN ([1]; MeCN),Soluble after: 24 h MeCN + 2.5% pyridine [1],Soluble after: 24 h MeCN ([1]; MeCN),other results
COc1ccc(C(OCC23COC(C(n4cc(C)c(=O)[nH]c4=O)O2)C3OP2OC(c3ccccc3)C3CCCN32)(c2ccccc2)c2ccc(OC)cc2)cc1 [D-LNA T],Yes,Yes,Yes,Yes,–
COc1ccc(C(OCC23COC(C(n4cnc5c(NC(=O)c6ccccc6)ncnc54)O2)C3OP2OC(c3ccccc3)C3CCCN32)(c2ccccc2)c2ccc(OC)cc2)cc1 [D-LNA A],Yes,Yes,Yes,No,Solubility after 24 hours in MeCN with addition of pyridine [1]: solubility of the monomer is preserved; Solubility after 24 hours in MeCN ([1]; MeCN): not soluble
COc1ccc(C(OC[C@H]2O[C@@H](n3cc(C)c(=O)[nH]c3=O)C[C@@H]2O[P@@]2O[C@H](c3ccccc3)[C@@H]3CCCN32)(c2ccccc2)c2ccc(OC)cc2)cc1 [L-DNA T],Yes,Yes,Yes,No,–
COc1ccc(C(OC[C@H]2O[C@@H](n3ccc(NC(C)=O)nc3=O)C[C@@H]2O[P@]2O[C@@H](c3ccccc3)[C@H]3CCCN32)(c2ccccc2)c2ccc(OC)cc2)cc1 [D-DNA C],Yes,Yes,Yes,No,–
COc1ccc(C(OC[C@H]2O[C@@H](n3cnc4c(NC(=O)c5ccccc5)ncnc43)C[C@@H]2O[P@@]2O[C@H](c3ccccc3)[C@@H]3CCCN32)(c2ccccc2)c2ccc(OC)cc2)cc1 [L-DNA A],Yes,Yes,Yes,No,Solubility after 24 hours in MeCN with addition of pyridine [1]: solubility of the monomer is preserved; also recorded: kept in solution; Solubility after 24 hours in MeCN ([1]; MeCN): not soluble; also recorded: not sufficient to keep the monomer in solution
COc1ccc(C(OCC23COC(C(n4cnc5c(=O)[nH]c(N=CN(C)C)nc54)O2)C3OP2OC(c3ccccc3)C3CCCN32)(c2ccccc2)c2ccc(OC)cc2)cc1 [L-LNA G-DMF],No,No,No,No,"Solubility in most solvents ([1]; MeCN, MeCN:DCE, MeCN:Tol, MeCN:acetone, Dioxane, and THF): unsoluble; Solubility in remaining solvents ([1]; MeCN:DCM, DMF, DMSO, NMP, DCM, DCE, and Toluene): soluble; Solubility in acetonitrile solvents ([1]; acetonitrile solvents): poorly soluble; Amidite left after 24 hours ([2]; DCM (best solvent), 24 hours, room temperature): 10%; Stability in the solvents where the monomer is soluble ([2]; MeCN:DCM, DMF, DMSO, NMP, DCM, DCE, and Toluene, 24 hours): tremendous instability"
COc1ccc(C(OCC23COC(C(n4cnc5c(=O)[nH]c(N=CN(C)C)nc54)O2)C3OP2OC(c3ccccc3)C3CCCN32)(c2ccccc2)c2ccc(OC)cc2)cc1 [D-LNA G],Yes,Yes,Yes,Yes,–
COc1ccc(C(OC[C@H]2O[C@@H](n3cnc4c(NC(=O)c5ccccc5)ncnc43)C[C@@H]2O[P@]2O[C@@H](c3ccccc3)[C@H]3CCCN32)(c2ccccc2)c2ccc(OC)cc2)cc1 [D-DNA A],Yes,Yes,Yes,No,Solubility after 24 hours in MeCN with addition of pyridine [1]: solubility of the monomer is preserved; Solubility after 24 hours in MeCN ([1]; MeCN): not soluble
COc1ccc(C(OC[C@H]2O[C@@H](n3cc(C)c(=O)[nH]c3=O)C[C@@H]2O[P@]2O[C@@H](c3ccccc3)[C@H]3CCCN32)(c2ccccc2)c2ccc(OC)cc2)cc1 [D-DNA T],Yes,Yes,Yes,No,–
COc1ccc(C(OC[C@@]23CO[C@@H]([C@H](n4cnc5c(=O)[nH]c(NC(=O)C(C)C)nc54)O2)[C@@H]3O[P@]2O[C@H](c3ccccc3)[C@@H]3CCCN32)(c2ccccc2)c2ccc(OC)cc2)cc1 [L-LNA-G-iBu],Yes,Yes,Yes,–,Solubility in all solvents investigated ([1]; all solvents investigated (12 different)): soluble
COc1ccc(C(OCC23COC(C(n4cnc5c(NC(=O)c6ccccc6)ncnc54)O2)C3OP2OC(c3ccccc3)C3CCCN32)(c2ccccc2)c2ccc(OC)cc2)cc1 [L-LNA A],–,–,–,–,"Stability in MeCN with Et3N after 24 hours ([2]; MeCN + Et3N approximately 5-10 eq, 24 hours): completely stable; Stability in MeCN with Et3N after 48 hours ([2]; MeCN + Et3N approximately 5-10 eq, 48 hours): majority of the L-LNA A is preserved; Stability in MeCN after 24 hours ([2]; MeCN only, 24 hours, room temperature): most of the L-LNA A was degraded; Stability in MeCN after 48 hours ([2]; MeCN only, 48 hours, room temperature): completely degraded"
COc1ccc(C(OC[C@H]2O[C@@H](n3cnc4c(=O)[nH]c(/N=C/N(C)C)nc43)C[C@@H]2O[P@@]2O[C@H](c3ccccc3)[C@@H]3CCCN32)(c2ccccc2)c2ccc(OC)cc2)cc1 [L-DNA G],Yes,Yes,Yes,No,–
COc1ccc(C(OC[C@H]2O[C@@H](n3ccc(NC(C)=O)nc3=O)C[C@@H]2O[P@@]2O[C@H](c3ccccc3)[C@@H]3CCCN32)(c2ccccc2)c2ccc(OC)cc2)cc1 [L-DNA C],Yes,Yes,Yes,No,–
COc1ccc(C(OC[C@H]2O[C@@H](n3cnc4c(=O)[nH]c(/N=C/N(C)C)nc43)C[C@@H]2O[P@]2O[C@@H](c3ccccc3)[C@H]3CCCN32)(c2ccccc2)c2ccc(OC)cc2)cc1 [D-DNA G],Yes,Yes,Yes,No,–
